Test results published in patent publication US20020173468A1, “MODIFIED CYTOSTATIC AGENTS” (priority 1996, published 2002).
Counter-ions that a name gives are not always drawn.

How the values were obtained:
Type in all cases: cell-based
[1] = system: B16F10 mouse melanoma cell line; experiment: Growth inhibition test (MTT) for cytotoxic properties, B16F10; conditions: B16F10 cells
Procedure: (§1) 1. Growth Inhibition Test for the Determination of Cytotoxic Properties
(§2) They were then trypsinized and taken up in RPMI plus 10% FCS to give a cell count of 50,000 cells/ml. 100 μl of cell suspension/well were added to a 96 microwell plate and incubated for 1 day at 37° C. in a CO2 incubator. A further 100 μl of RPMI medium and 1 μl of DMSO were then added with the test substances. The growth was checked after day 3 and day 6. To do this, 40 μl of MTT solution (3-(4,5-dimethylthiazol-2-yl)-2,5-diphenyl-tetrazolin bromide) were added to each microwell at a starting concentration of 5 mg/ml of H2O. Incubation was carried out at 37° C. for 5 hours in the CO2 incubator. The medium was then aspirated and 100 μl of i-propanol/well were added. After shaking for 30 min with 100 μl of H2O, the extinction was measured at 540 nm using a Titertek Multiskan MCC/340 (flow).
(§3) The cytotoxic action is indicated in Table 1 as an IC50 value in each case for the SW 480 and HT 29 and B16F10 cell lines: […]

[2] = system: HT 29 human colonic tumour cell line; experiment: Growth inhibition test (MTT) for cytotoxic properties, HT 29; conditions: HT 29 cells
Procedure: as §1, §2, §3

[3] = system: SW 480 human colonic tumour cell line; experiment: Growth inhibition test (MTT) for cytotoxic properties, SW 480; conditions: SW 480 cells
Procedure: as §1, §2, §3

Structure (SMILES) | IC50 [1] [nM] | IC50 [2] [nM] | IC50 [3] [nM]
NCCCCC(NC(=S)Nc1ccc(N=C=S)cc1)C(=O)NC1C=CCC2CN(c3c(F)cc4c(=O)c(C(=O)O)cn(C5CC5)c4c3Cl)CC21 (racemic) [2.8), N-[N^α-(4-Isothiocyanato-phenylamino-thiocarbonyl)-lysyl]-quinolone-a] | 100 | 100 | 200
CCC1(OC(=O)C(CC(C)C)NC(=O)C(CCCCN)NC(=S)Nc2ccc(O)cc2)C(=O)OCc2c1cc1n(c2=O)Cc2cc3ccccc3nc2-1 (stereo not drawn) [4.2), 20-O-[N^α-(4-Hydroxy-phenylamino-thiocarbonyl)-lysyl-leucyl]-camptothecin, hydrochloride] | 300 | 60 | 70
CC[C@@]1(OC(=O)C(C)NC(=O)C(CCCCN)NC(=S)Nc2ccc(O)cc2)C(=O)OCc2c1cc1n(c2=O)Cc2cc3ccccc3nc2-1 (stereo partly drawn) [4.1), 20-O-[N^α-(4-Hydroxy-phenylamino-thiocarbonyl)-lysyl-alanyl]-camptothecin] | 100 | 20 | 10
NCCCCC(NC(=S)Nc1ccc(C(=O)O)cc1)C(=O)NC1C=CCC2CN(c3c(F)cc4c(=O)c(C(=O)O)cn(C5CC5)c4c3Cl)CC21 (racemic) [2.9), N-[N^α-(4-Carboxy-phenylamino-thiocarbonyl)-lysyl]-quinolone-a] | 1000 | 2000 | 2000
CCC1(OC(=O)C(Cc2ccccc2)NC(=O)C(CCCCN)NC(=S)Nc2ccc(O)cc2)C(=O)OCc2c1cc1n(c2=O)Cc2cc3ccccc3nc2-1 (stereo not drawn) [4.3), 20-O-[N^α-(4-Hydroxy-phenylamino-thiocarbonyl)-lysyl-phenyl-alanyl]-camptothecin] | 100 | 20 | 20
CC[C@@]1(OC(=O)C(NC(=O)C(CCCCN)NC(=S)Nc2ccc(C(=O)O)cc2)C(C)C)C(=O)OCc2c1cc1n(c2=O)Cc2cc3ccccc3nc2-1 (stereo partly drawn) [4.5), 20-O-[N^α-(4-Carboxy-phenylamino-thiocarbonyl)-lysyl-valyl]-camptothecin, hydrochloride] | 800 | 200 | 300
NCCC(NC(=S)Nc1ccc(O)cc1)C(=O)NC1C=CCC2CN(c3c(F)cc4c(=O)c(C(=O)O)cn(C5CC5)c4c3Cl)CC21 (racemic) [2.3), N-[N^α-(4-Hydroxy-phenylamino-thiocarbonyl)-α,γ-diaminobutyryl]-quinolone-a, hydrochloride] | 200 | 700 | 900
CCC1(OC(=O)[C@H](Cc2ccccc2)NC(=O)[C@H](CCCCNC(=S)Nc2ccc(O)cc2)NC(=S)Nc2ccc(O)cc2)C(=O)OCc2c1cc1n(c2=O)Cc2cc3ccccc3nc2-1 (stereo partly drawn) [4.11), 20-O-[N^α,N^ε-bis-(4-Hydroxy-phenylamino-thiocarbonyl)-lysyl-phenylalanyl]-camptothecin] | 200 | 30 | 60
CC(NC(=O)C(CO)NC(=S)Nc1ccc(O)cc1)C(=O)Nc1ccc2c(c1)CN1C(=O)c3ccccc3C1=N2 [1.5), N-[N-(4-Hydroxy-phenylamino-thiocarbonyl)-seryl-D-alanyl]-batracylin] | – | 400000 | 250000
CC(NC(=S)Nc1ccc(O)cc1)C(=O)NC1C=CCC2CN(c3c(F)cc4c(=O)c(C(=O)O)cn(C5CC5)c4c3Cl)CC21 (racemic) [2.2), N-[N-(4-Hydroxy-phenylamino-thiocarbonyl)-D-alanyl]-quinolone-a] | 4000 | 6000 | 15000
CC[C@@]1(OC(=O)C(NC(=O)C(CCCCN)NC(=S)Nc2ccccc2O)C(C)C)C(=O)OCc2c1cc1n(c2=O)Cc2cc3ccccc3nc2-1 (stereo partly drawn) [4.13), 20-O-[N^α-(2-Hydroxy-phenylamino-thiocarbonyl)-lysyl-valyl]-camptothecin, hydrochloride] | 200 | 40 | 60
COc1cccc2c1C(=O)c1c(O)c3c(c(O)c1C2=O)C[C@@](O)(C(=O)CO)C[C@@H]3O[C@H]1C[C@H](NC(=O)C(C)NC(=O)C(CCCCN)NC(=S)Nc2ccc(O)cc2)[C@H](O)[C@H](C)O1 (stereo partly drawn) [3), N-[N^α-(4-Hydroxy-phenylamino-thiocarbonyl)-lysyl-alanyl]-doxorubicin] | 1000 | 2000 | 3000
CC(NC(=S)Nc1ccc(O)cc1)C(=O)NC1C=CCC2CN(c3c(F)cc4c(=O)c(C(=O)O)cn(C5CC5)c4c3Cl)CC21 (racemic) [2.1), N-[N-(4-Hydroxy-phenylamino-thiocarbonyl)-alanyl]-quinolone-a] | 9000 | 9000 | 20000
CCC1(OC(=O)C(NC(=O)C(CCCCN)NC(=S)Nc2ccc(N)cc2)C(C)C)C(=O)OCc2c1cc1n(c2=O)Cc2cc3ccccc3nc2-1 (stereo not drawn) [4.18), 20-O-[N^α-(4-Amino-phenylamino-thiocarbonyl)-lysyl-valyl]-camptothecin, hydrochloride] | 400 | 120 | 300
CCc1c2c(nc3ccccc13)-c1cc3c(c(=O)n1C2)COC(=O)C3(CC)OC(=O)C(NC(=O)C(CCCCN)NC(=S)Nc1ccc(O)cc1)C(C)C (stereo not drawn) [5.2), 7-Ethyl-20-O-[N^α-(4-hydroxy-phenylamino-thiocarbonyl)-lysyl-valyl]-camptothecin, hydrochloride] | 900 | 300 | 500
CCC1(OC(=O)C(NC(=O)C(CCCCNC(=S)Nc2ccc(O)cc2)NC(=S)Nc2ccc(O)cc2)C(C)C)C(=O)OCc2c1cc1n(c2=O)Cc2cc3ccccc3nc2-1 (stereo not drawn) [4.21), 20-O-{[N^α-N^ε-bis-(4-Hydroxy-phenylamino-thiocarbonyl)]-lysyl-valyl}-camptothecin, hydrochloride] | 3000 | 300 | 700
CCC1(O)C(=O)OCc2c1cc1n(c2=O)Cc2c-1nc1ccccc1c2COC(=O)[C@@H](NC(=O)[C@H](CCCCN)NC(=S)Nc1ccc(O)cc1)C(C)C (stereo partly drawn) [7), 7-[N^α-(4-Hydroxy-phenylamino-thiocarbonyl)-lysyl-valyloxymethyl]-camptothecin, hydrochloride] | 1000 | 80 | 60
CCC1(OC(=O)C(NC(=O)C(CCCCN)NC(=S)Nc2cccc(OC)c2)C(C)C)C(=O)OCc2c1cc1n(c2=O)Cc2cc3ccccc3nc2-1 (stereo not drawn) [4.15), 20-O-[N^α-(3-Methoxy-phenylamino-thiocarbonyl)-lysyl-valyl]-camptothecin, hydrochloride] | 200 | 60 | 90
CCC1(OC(=O)[C@@H](NC(=O)[C@H](CCCCN)NC(=S)Nc2ccc(OC)cc2)C(C)C)C(=O)OCc2c1cc1n(c2=O)Cc2cc3ccccc3nc2-1 (stereo partly drawn) [4.14), 20-O-[N^α-(4-Methoxy-phenylamino-thiocarbonyl)-lysyl-valyl]-camptothecin, hydrochloride] | 750 | 75 | 160
CC[C@@]1(OC(=O)[C@@H](NC(=O)[C@H](CCCCN)NC(=S)Nc2ccccc2)C(C)C)C(=O)OCc2c1cc1n(c2=O)Cc2cc3ccccc3nc2-1 [4.7), 20-O-[N^α-(Phenylamino-thiocarbonyl)-lysyl-valyl]-camptothecin, hydrochloride] | 300 | 60 | 100
CC(NC(=O)C(CCC(=O)O)NC(=S)Nc1ccc(O)cc1)C(=O)Nc1ccc2nc3n(c(=O)c2c1)Cc1ccccc1-3 [1.6), N-[N-(4-Hydroxy-phenylamino-thiocarbonyl)-glutamyl-D-alanyl]-batracylin] | – | 800000 | 550000
CCC1(OC(=O)C(CC(C)C)NC(=O)C(CCCCN)NC(=S)Nc2ccc(O)cc2)C(=O)OCc2c1cc1n(c2=O)Cc2cc3ccccc3nc2-1 (stereo not drawn) [4.20), 20-O-[N^α-(4-Hydroxy-phenylamino-thiocarbonyl)-lysyl-leucyl]-camptothecin, hydrochloride] | 300 | 60 | 70
CCC1(OC(=O)C(NC(=O)C(Cc2c[nH]cn2)NC(=S)Nc2ccc(O)cc2)C(C)C)C(=O)OCc2c1cc1n(c2=O)Cc2cc3ccccc3nc2-1 (stereo not drawn) [4.19), 20-O-[N^α-(4-Hydroxy-phenylamino-thiocarbonyl)-histidyl-valyl]-camptothecin, hydrochloride] | 400 | 40 | 80
C[C@@H](NC(=O)[C@H](CCCCN)NC(=S)Nc1ccc(O)cc1)C(=O)Nc1ccc2nc3n(c(=O)c2c1)Cc1ccccc1-3 [1.4), N-[N^α-(4-Hydroxy-phenylamino-thiocarbonyl)-lysyl-D-alanyl]-batracylin] | 30000 | 40000 | 40000
O=C(O)c1cn(C2CC2)c2c(Cl)c(N3CC4CC=CC(NC(=O)C(CCCCNC(=S)Nc5ccc(O)cc5)NC(=S)Nc5ccc(O)cc5)C4C3)c(F)cc2c1=O (racemic) [2.5), N-[N^α,N^ε-bis-(4-Hydroxy-phenylamino-thiocarbonyl)-D-lysyl]-quinolone-a] | 200000 | > 200000 | 200000
NCCCC[C@H](NC(=S)Nc1ccc(O)cc1)C(=O)Nc1ccc2c(c1)CN1C(=O)c3ccccc3C1=N2 [1.2), N-[N^α-(4-Hydroxy-phenylamino-thiocarbonyl)-lysyl]-batracylin] | – | 40000 | 25000
NC(CCCCNC(=S)Nc1ccc(O)cc1)C(=O)Nc1ccc2c(c1)CN1C(=O)c3ccccc3C1=N2 (centres unmarked) [1.3), N-[N^ε-(4-Hydroxy-phenylamino-thiocarbonyl)-lysyl]-batracylin] | – | 70000 | 45000
